# Earlier results as cited in article PMC4331650 (Biochimica et Biophysica Acta, 2014).
# Where two headings read alike, the source gives them in different places.
# Tests used:
# hCLC-Kb = settings: [NFA]ext up to 2 mM; cited from earlier work
# WT CLC-Ka = target: T1, WT CLC-Ka (Homo sapiens, UniProt P51800); settings: Xenopus oocytes, cited from earlier work
# T1 sequence (P51800 1-687): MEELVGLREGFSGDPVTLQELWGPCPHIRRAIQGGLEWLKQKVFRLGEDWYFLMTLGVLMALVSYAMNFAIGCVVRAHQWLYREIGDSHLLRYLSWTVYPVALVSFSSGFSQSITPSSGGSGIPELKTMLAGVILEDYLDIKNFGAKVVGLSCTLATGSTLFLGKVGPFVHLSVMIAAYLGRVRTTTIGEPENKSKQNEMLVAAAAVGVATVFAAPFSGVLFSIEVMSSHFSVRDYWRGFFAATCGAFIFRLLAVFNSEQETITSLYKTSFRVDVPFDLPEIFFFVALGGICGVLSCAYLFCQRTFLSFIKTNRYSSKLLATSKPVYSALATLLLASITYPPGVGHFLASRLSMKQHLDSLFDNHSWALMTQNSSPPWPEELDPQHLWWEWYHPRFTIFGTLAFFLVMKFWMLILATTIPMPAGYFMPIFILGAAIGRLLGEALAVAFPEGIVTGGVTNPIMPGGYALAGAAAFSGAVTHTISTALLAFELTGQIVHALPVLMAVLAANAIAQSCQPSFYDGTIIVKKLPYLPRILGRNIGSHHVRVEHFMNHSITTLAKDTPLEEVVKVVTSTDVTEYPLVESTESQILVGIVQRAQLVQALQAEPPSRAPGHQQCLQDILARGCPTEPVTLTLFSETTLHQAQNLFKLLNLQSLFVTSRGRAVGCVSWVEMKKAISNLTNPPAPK
# T1 sequence (Q8WZ55 1-320 Y98A partner): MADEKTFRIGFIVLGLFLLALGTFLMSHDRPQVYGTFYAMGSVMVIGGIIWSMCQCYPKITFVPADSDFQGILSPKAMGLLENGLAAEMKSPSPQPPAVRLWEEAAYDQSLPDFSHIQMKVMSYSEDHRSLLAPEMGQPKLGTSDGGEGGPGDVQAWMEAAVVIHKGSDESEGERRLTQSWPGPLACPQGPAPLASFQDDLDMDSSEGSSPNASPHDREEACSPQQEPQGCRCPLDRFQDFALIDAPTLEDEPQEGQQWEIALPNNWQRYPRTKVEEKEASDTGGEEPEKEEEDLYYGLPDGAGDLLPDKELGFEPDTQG
structure (smiles),measurement,setting,value
"O=C(O)c1cccnc1Nc1cccc(C(F)(F)F)c1 [NFA, niflumic acid]",effect on hCLC-Kb,hCLC-Kb,potentiated
same,effect on CLC-Ka currents,WT CLC-Ka; [NFA]ext higher than 0.5 mM,block
same,effect on CLC-Ka currents,WT CLC-Ka; [NFA]ext ≤ 0.5 mM,increases
